{
  "source": "patent US20260137678A1",
  "about": "“METHODS FOR TREATING OR PREVENTING NEUROENDOCRINE TUMOR FORMATION USING XPO1 INHIBITORS” (priority 2022, published 2026)",
  "system": "SOX2",
  "test": "SOX2 mRNA and protein expression in selinexor-treated isogenic cell lines",
  "format": "cell-based",
  "conditions": "H1563, 22PC and LnCap cell lines, selinexor 5 nM for 4 days",
  "source_text": "FIGS. 6A-6J: Exportin 1 inhibition downregulates SOX2 expression, hindering the acquisition of NE features. Pathway enrichment analysis on DEGs from enzalutamide versus control (FIG. 6A) and combo versus enzalutamide (FIG. 6B) conditions in the transcriptomic data from TP53/RB1 DKO 22PC xenografts treated in vivo and collected at control arm experimental endpoint (day 31). Categorized pathways of interest, previously involved in NE transformation^5,6, are shown. FIG. 6C: SOX2 mRNA expression in tumors divided by treatment condition. mRNA expression values are shown as TPM (n=4, 3, 3 and 3 tumors for the control, enzalutamide-, selinexor- and combo-treated tumors). […] Mice weights and tumor volumes were measured twice a week and mice were sacrificed when tumors reached humane endpoint (volume=1000 mm^3). […] For western blots and mRNA plots, representative images are shown. p-values were calculated using the Student's t-test (unpaired, heterogeneous variances, two-tailed). p-value legend: *<0.05, **<0.01, ***<0.001. […]\nProtein extraction and western blot were performed as previously described^24 from frozen cell pellets or flash-frozen tumor samples using RIPA lysis buffer with 1×HALT protease inhibitor cocktail (Thermo, #78446). […] Quantifications were performed with the Image Studio software (Version 3.1, Li-Cor). […]",
  "data": [
    {"compound": "O=C(/C=C\\n1cnc(-c2cc(C(F)(F)F)cc(C(F)(F)F)c2)n1)NNc1cnccn1", "note": "[selinexor]", "values": [
      {"measurement": "induction of SOX2 mRNA and protein by TP53/RB1 inactivation", "result": "prevented"}
    ]}
  ]
}
